Measurements published in patent US6355658B1, “Coumarin derivatives, methods of preparation and application as medicines” (Centre National de la Recherche Scientifique, priority 1997, dated 2002).

Legend:
human thrombin = biological target: T1, human thrombin (Homo sapiens, UniProt P00734); experiment: Inactivation kinetics of human thrombin (chromogenic substrate H-D-Phe-Pip-Arg-pNA); assay type: biochemical; settings: TABLE 5, phenyl esters, 25° C., pH 7.5, inactivation phase, N.I. = non-inactivator; for kinact/KI: read-out: Ki/KI or kobs/[I], Thrombin
T1 construct: human thrombin
Procedure: (§1) The inactivating or inhibitory properties of the coumarin derivatives were tested with respect to a certain number of enzymes: human leukocyte elastase, bovine α-chymotrypsin, human thrombin and bovine trypsin. The kinetic measurements were taken at 25° C. in the following buffers: 0.1 M Hepes, 0.5 M NaCl, 0.01% Tween 80, pH 8.0 (human leukocyte elastase); 0.025 M NaH2PO4, 0.05 M KCl, pH 7.5 (α-chymotrypsin); 0.01 M Tris, 0.01 M Hepes, 0.1 M NaCl, 0.1% PEG-6000, pH 7.5 (human thrombin); 0.1 M Tris, 0.01 M CaCl2, pH 7.5 (bovine trypsin). The chromogenic substrates used to determine the activity of the enzymes are: MeOSuc-Ala2-Pro-Val-pNA (human leukocyte elastase); Suc-Ala2-Pro-Phe-pNA (α-chymotrypsin); H-D-Phe-Pip-Arg-pNA (human thrombin); N-benzoyl-Arg-pNA (bovine trypsin) (pNA: para-nitroaniline).
(§2) The interaction of a suicide substrate with a serine protease corresponds to the minimum reaction scheme described in equation 1 in which E represents the enzyme, I represents the inhibitor, E-I represents the acyl-enzyme and E-I′ represents the inactivated enzyme [Silverman R. B., 1988, “Mechanism-based enzyme inactivation: chemistry and enzymology”, volume 1 CRC Press, Boca Raton, Fla.]: [drawing 76]
(§3) When k4 is small compared to k3, equation 1 can be simplified (equation 2, [Daniels et al., 1983, J. Biol. Chem., 258: 15046-15053]): [drawing 77]
(§4) Considering the first instants of the reaction, the system reduces to a simplified equation of the form of equation 2.
(§5) The kinetic constants characterizing the inactivation of the enzymes with the coumarin derivatives were determined using either the conventional sampling method (or batchwise method) or a method placing the inhibitor and the substrate in competition (or continuous method); these methods are described by Pochet et al. [Pochet et al., 1996, J. Med. Chem., 39: 2579-2585].
(§6) The inactivation of serine proteaaes with the coumarin derivatives is thus characterized by the following constants (see Eq. 2):
(§7) KI: apparent dissociation constant of an enzyme-inhibitor complex located upstream of ki
(§8) ki: first-order rate constant for inactivation at infinite inhibitor concentration
(§9) ki/KI: index of the overall inactivating efficacy of the inhibitor.

human leukocyte elastase = biological target: T2, human leukocyte elastase (Homo sapiens, UniProt P08246); experiment: Inactivation kinetics of human leukocyte elastase (chromogenic substrate MeOSuc-Ala2-Pro-Val-pNA); assay type: biochemical; settings: TABLE 5, phenyl esters; 25° C., pH 8.0; inactivation phase; N.I. = non-inactivator; read-out: Ki/KI or kobs/[I], HLE
T2 sequence (P08246 30-247 limits assumed): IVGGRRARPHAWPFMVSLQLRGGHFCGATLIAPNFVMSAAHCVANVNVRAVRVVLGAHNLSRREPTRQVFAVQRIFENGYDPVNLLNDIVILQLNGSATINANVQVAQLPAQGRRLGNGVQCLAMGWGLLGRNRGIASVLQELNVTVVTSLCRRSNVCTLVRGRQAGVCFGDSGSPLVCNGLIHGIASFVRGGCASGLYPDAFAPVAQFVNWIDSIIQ
Procedure: as §1, §2, §3, §4, §5, §6, §7, §8, §9

SMILES	melting point	other results
O=C(Oc1cc([N+](=O)[O-])ccc1[N+](=O)[O-])c1cc2ccccc2oc1=O	223 to 225 °C	–
Cc1ccc2oc(=O)c(C(=O)Oc3cc([N+](=O)[O-])ccc3[N+](=O)[O-])cc2c1	225 to 229 °C	–
O=C(Oc1cc([N+](=O)[O-])ccc1[N+](=O)[O-])c1cc2cc(CCl)ccc2oc1=O	153 to 157 °C	–
CC(=O)OCc1ccc2oc(=O)c(C(=O)Oc3cc([N+](=O)[O-])ccc3[N+](=O)[O-])cc2c1	162 to 164 °C	–
O=C(Nc1cccnc1)c1cc2cc(CCl)ccc2oc1=O [II1, N-(3-pyridyl)-6-chloromethyl-2-oxo-2H-1-benzopyran-3-carboxamide]	270 °C (dec.)	–
O=C(Nc1cccnc1Cl)c1cc2cc(CCl)ccc2oc1=O [II2, N-(2-chloro-3-pyridyl)-6-chloromethyl-2-oxo-2H-1-benzopyran-3-carboxamide]	211 °C (dec.)	–
COc1ccc(NC(=O)c2cc3cc(CCl)ccc3oc2=O)cn1 [II3, N-(6-methoxy-3-pyridyl)-6-chloromethyl-2-oxo-2H-1-benzopyran-3-carboxamide]	225 °C (dec.)	–
O=C(NSc1ncccc1[N+](=O)[O-])c1cc2cc(CCl)ccc2oc1=O [IV1, N-[(3-nitro-2-pyridyl)sulfanyl]-6-chloromethyl-2-oxo-2H-1-benzopyran-3-carboxamide]	252 to 254 °C	–
O=C(Oc1cc(F)ccc1F)c1cc2ccccc2oc1=O [Ia5, 2,5-difluorophenyl 2-oxo-2H-1-benzopyran-3-carboxylate]	134 to 137 °C	Ki/KI or kobs/[I], Thrombin (human thrombin): N.I.
O=C(Oc1cc(F)ccc1Br)c1cc2ccccc2oc1=O [Ia6, 2-bromo-5-fluorophenyl 2-oxo-2H-1-benzopyran-3-carboxylate]	173 to 175 °C	–
O=C(Oc1cc(F)ccc1[N+](=O)[O-])c1cc2ccccc2oc1=O [Ia7, 5-fluoro-2-nitrophenyl 2-oxo-2H-1-benzopyran-3-carboxylate]	219 to 223 °C	–
O=C(Oc1cccc2cnccc12)c1cc2ccccc2oc1=O [Ia9, 5-isoquinolyl 2-oxo-2H-1-benzopyran-3-carboxylate]	190 to 193 °C	–
O=C(Oc1cc2ccccc2cn1)c1cc2ccccc2oc1=O [Ia10, 3-isoquinolyl 2-oxo-2H-1-benzopyran-3-carboxylate]	160 to 163 °C	–
Cc1ccc2oc(=O)c(C(=O)Oc3cc(Cl)ccc3Cl)cc2c1 [Ib3, 2,5-dichlorophenyl 6-methyl-2-oxo-2H-1-benzopyran-3-carboxylate]	175 to 179 °C	kinact/KI (human leukocyte elastase): 3000 M⁻¹ s⁻¹
Cc1ccc2oc(=O)c(C(=O)Oc3cc(F)ccc3F)cc2c1 [Ib4, 2,5-difluorophenyl 6-methyl-2-oxo-2H-1-benzopyran-3-carboxylate]	155 to 159 °C	–
Cc1ccc2oc(=O)c(C(=O)Oc3cc(F)ccc3Br)cc2c1 [Ib5, 2-bromo-5-fluorophenyl 6-methyl-2-oxo-2H-1-benzopyran-3-carboxylate]	187 to 190 °C	–
Cc1ccc2oc(=O)c(C(=O)Oc3cc(F)ccc3[N+](=O)[O-])cc2c1 [Ib6, 5-fluoro-2-nitrophenyl 6-methyl-2-oxo-2H-1-benzopyran-3-carboxylate]	224 to 226 °C	–
Cc1ccc2oc(=O)c(C(=O)Oc3cccc4cnccc34)cc2c1 [Ib8, 5-isoquinolyl 6-methyl-2-oxo-2H-1-benzopyran-3-carboxylate]	188 to 190 °C	–
O=C(OC1CCCCC1)c1cc2cc(CCl)ccc2oc1=O [Ic′1, cyclohexyl 6-chloromethyl-2-oxo-2H-1-benzopyran-3-carboxylate]	185 to 186 °C	–

SMILES	melting point	other results
O=C(OC1CCCCCC1)c1cc2cc(CCl)ccc2oc1=O [Ic′2, cycloheptyl 6-chloromethyl-2-oxo-2H-1-benzopyran-3-carboxylate]	171 to 174 °C	–
O=C(OC1CCCCCCC1)c1cc2cc(CCl)ccc2oc1=O [Ic′3, cyclooctyl 6-chloromethyl-2-oxo-2H-1-benzopyran-3-carboxylate]	169 to 170 °C	–
O=C(OC1CCCCCCCCCCC1)c1cc2cc(CCl)ccc2oc1=O [Ic′4, cyclododecyl 6-chloromethyl-2-oxo-2H-1-benzopyran-3-carboxylate]	164 to 167 °C	–
Cc1cncc(OC(=O)c2cc3cc(CCl)ccc3oc2=O)c1 [Ic′″2, 5-methyl-3-pyridyl 6-chloromethyl-2-oxo-2H-1-benzopyran-3-carboxylate]	211 °C (dec.)	–
Cc1ccc(OC(=O)c2cc3cc(CCl)ccc3oc2=O)cn1 [Ic′″3, 6-methyl-3-pyridyl 6-chloromethyl-2-oxo-2H-1-benzopyran-3-carboxylate]	205 to 208 °C	–
O=C(Oc1cccnc1Cl)c1cc2cc(CCl)ccc2oc1=O [Ic′″4, 2-chloro-3-pyridyl 6-chloromethyl-2-oxo-2H-1-benzopyran-3-carboxylate]	198 to 200 °C	–
O=C(Oc1cccnc1Br)c1cc2cc(CCl)ccc2oc1=O [Ic′″6, 2-bromo-3-pyridyl 6-chloromethyl-2-oxo-2H-1-benzopyran-3-carboxylate]	197 to 199 °C	–
O=C(Oc1cccnc1[N+](=O)[O-])c1cc2cc(CCl)ccc2oc1=O [Ic′″7, 2-nitro-3-pyridyl 6-chloromethyl-2-oxo-2H-1-benzopyran-3-carboxylate]	190 to 193 °C	–
Cc1ccc(OC(=O)c2cc3cc(CCl)ccc3oc2=O)c([N+](=O)[O-])n1 [Ic′″8, 6-methyl-2-nitro-3-pyridyl 6-chloromethyl-2-oxo-2H-1-benzopyran-3-carboxylate]	203 to 208 °C	–
O=C(Oc1cc(F)ccc1Br)c1cc2cc(CCl)ccc2oc1=O [Ic″9, 2-bromo-5-fluorophenyl 6-chloromethyl-2-oxo-2H-1-benzopyran-3-carboxylate]	203 to 205 °C	–
O=C(Oc1cc(F)ccc1[N+](=O)[O-])c1cc2cc(CCl)ccc2oc1=O [Ic″10, 5-fluoro-2-nitrophenyl 6-chloromethyl-2-oxo-2H-1-benzopyran-3-carboxylate]	205 to 208 °C	–
O=C(Oc1cccc2cccnc12)c1cc2cc(CCl)ccc2oc1=O [Ic″″1, 8-quinolyl 6-chloromethyl-2-oxo-2H-1-benzopyran-3-carboxylate]	127 °C (dec.)	–
O=C(Oc1ccc2ncccc2c1)c1cc2cc(CCl)ccc2oc1=O [Ic″″2, 6-quinolyl 6-chloromethyl-2-oxo-2H-1-benzopyran-3-carboxylate]	205 to 208 °C	–
CCC(=O)OCc1ccc2oc(=O)c(C(=O)Oc3ccccc3)cc2c1 [Id5, phenyl 6-propionyloxymethyl-2-oxo-2H-1-benzopyran-3-carboxylate]	186 to 187 °C	–
CC(=O)OCc1ccc2oc(=O)c(C(=O)Oc3cc(Cl)ccc3Cl)cc2c1 [Id11, 2,5-dichlorophenyl 6-acetoxymethyl-2-oxo-2H-1-benzopyran-3-carboxylate]	168 to 171 °C	kinact/KI (human thrombin): 500 M⁻¹ s⁻¹
CC(=O)OCc1ccc2oc(=O)c(C(=O)Oc3cc(F)ccc3F)cc2c1 [Id12, 2,5-difluorophenyl 6-acetoxymethyl-2-oxo-2H-1-benzopyran-3-carboxylate]	137 to 139 °C	kinact/KI (human thrombin): 150 M⁻¹ s⁻¹
CC(=O)OCc1ccc2oc(=O)c(C(=O)Oc3cc(Cl)cc(Cl)c3)cc2c1 [Id13, 3,5-dichlorophenyl 6-acetoxymethyl-2-oxo-2H-1-benzopyran-3-carboxylate]	146 to 150 °C	–
CC(=O)OCc1ccc2oc(=O)c(C(=O)Oc3cc(F)ccc3Br)cc2c1 [Id14, 2-bromo-5-fluorophenyl 6-acetoxymethyl-2-oxo-2H-1-benzopyran-3-carboxylate]	148 to 150 °C	–
CC(=O)OCc1ccc2oc(=O)c(C(=O)Oc3cc(F)ccc3[N+](=O)[O-])cc2c1 [Id15, 5-fluoro-2-nitrophenyl 6-acetoxymethyl-2-oxo-2H-1-benzopyran-3-carboxylate]	157 to 161 °C	–
